Source: US6172079A, “5-substituted-3-oxadiazolyl-1,6-naphthyridin-2(1H)-one derivatives” (Dainippon Pharmaceutical Co., Ltd., priority 1997, dated 2001)

Assays:
benzodiazepine receptor = test: Benzodiazepine Receptor Binding Assay; conditions: read-out: BZP-receptor Binding IC50; [3H]-diazepam 1.5 nM; rat brain crude synaptosome membrane; 0° C., 20 min
[1] = tested on: GABAA receptor complex (TBPS binding); test: TBPS Binding Assay; parameters: species or system Wistar rats; conditions: [35S]TBPS 0.4 nM, GABA 1 μM, rat cerebral cortex membrane, +% inverse agonistic, 0% antagonistic
Procedure: The TBPS (t-butylbicyclophosphonothionate) binding assay and the preparation of the membrane specimen were done in a similar manner to the method of Biggio, G. et al. [cf. European Journal of Pharmacology, vol.
That is, to the cerebral cortex was added a 50-fold volume of an ice-cooled buffer (a 50 mM Tris-citrate buffer containing 100 mM sodium chloride, pH 7.4) and the mixture was homogenized at 0-4° C. and then centrifuged at 20,000 g for 20 minutes. The pellets thus obtained were once subjected to homogenization in a buffer and centrifugation by the same procedure as above and then kept in freezed state at -80° C. for more than 20 hours. On the test day, the freezed pellets were thawed and then subjected twice to the homogenization-centrifugation procedure as described above.
Subsequently, the filter was moved into a liquid scintillation vial and thereto was added a liquid scintillation cocktail (ACS-II, manufactured by Amersham, USA, 10 ml) and allowed to stand for a fixed period of time. […] Separately, the same procedures were repeated in the presence of Picrotoxin to determine the non-specific binding amount. The non-specific binding amount was deducted from the total binding amount to give the specific binding amount. The binding activity of the test compound was calculated by a variation rate, i.e., a rate of the specific binding amount of the test compound to the specific binding amount in control (using a solvent).

Structure (SMILES)	IC50 (benzodiazepine receptor) [nM]	TBPS binding Variation Rate [1] [%]
Cc1nccc2[nH]c(=O)c(-c3noc(C4CC4)n3)cc12 [Example 1, 3-(5-cyclopropyl-1,2,4-oxadiazol-3-yl)-5-methyl-1,6-naphthyridin-2(1H)-one]	2.28	–
Cc1nc(-c2cc3c(C)nccc3[nH]c2=O)no1 [Example 2]	–	53
Cc1nc(-c2cc3c(-c4ccc(Cl)cc4)nccc3[nH]c2=O)no1 [Example 8]	–	13
Cc1cccc(-c2nccc3[nH]c(=O)c(-c4noc(C)n4)cc23)c1 [Example 9]	1.62	–
Cc1ccc(-c2nccc3[nH]c(=O)c(-c4noc(C)n4)cc23)cc1 [Example 10]	8.08	–
CCc1nc(-c2cc3cnccc3[nH]c2=O)no1 [Example 12]	7.89	–
CCc1nc(-c2cc3c(C)nccc3[nH]c2=O)no1 [Example 13]	–	24
CCCc1nccc2[nH]c(=O)c(-c3noc(CC)n3)cc12 [Example 15]	6.16	–
CCCCc1nccc2[nH]c(=O)c(-c3noc(CC)n3)cc12 [Example 19]	6.37	–
CCCCCc1nccc2[nH]c(=O)c(-c3noc(CC)n3)cc12 [Example 22]	3.76	–
CCc1nc(-c2cc3c(C4CC=CCC4)nccc3[nH]c2=O)no1 (stereo not drawn) [Example 25]	1.84	–
CCc1nc(-c2cc3c(-c4ccccc4)nccc3[nH]c2=O)no1 [Example 26]	0.67	–
CCc1nc(-c2cc3c(-c4cccc(F)c4)nccc3[nH]c2=O)no1 [Example 27]	0.96	–
CCc1nc(-c2cc3c(-c4ccc(F)cc4)nccc3[nH]c2=O)no1 [Example 28]	1.25	–
CCc1nc(-c2cc3c(-c4cccc(Cl)c4)nccc3[nH]c2=O)no1 [Example 29]	5.28	–
CCc1nc(-c2cc3c(-c4cccc(C)c4)nccc3[nH]c2=O)no1 [Example 31]	1.64	–
CCc1nc(-c2cc3c(-c4ccc(C)cc4)nccc3[nH]c2=O)no1 [Example 32]	3.29	–
CCc1nc(-c2cc3c(-c4ccc(OC)cc4)nccc3[nH]c2=O)no1 [Example 33]	5.5	–
CCCc1nc(-c2cc3c(C4CC4)nccc3[nH]c2=O)no1 [Example 37]	3.91	–
CCCc1nc(-c2cc3c(-c4cccc(F)c4)nccc3[nH]c2=O)no1 [Example 39]	2.86	–
CCCc1nc(-c2cc3c(-c4ccc(F)cc4)nccc3[nH]c2=O)no1 [Example 40]	7.45	–

Structure (SMILES)	IC50 (benzodiazepine receptor) [nM]	TBPS binding Variation Rate [1] [%]
CC(C)c1nc(-c2cc3c(C4CC4)nccc3[nH]c2=O)no1 [Example 44]	2.62	–
CC(C)c1nc(-c2cc3c(-c4cccc(F)c4)nccc3[nH]c2=O)no1 [Example 46]	2.15	–
CCCc1nccc2[nH]c(=O)c(-c3noc(C4CC4)n3)cc12 [Example 49]	1.11	–
O=c1[nH]c2ccnc(C3CC3)c2cc1-c1noc(C2CC2)n1 [Example 51]	0.79	–
O=c1[nH]c2ccnc(-c3ccc(F)cc3)c2cc1-c1noc(C2CC2)n1 [Example 54]	1.21	–
O=c1[nH]c2ccnc(-c3ccc(Cl)cc3)c2cc1-c1noc(C2CC2)n1 [Example 56]	2.71	–
Cc1cccc(-c2nccc3[nH]c(=O)c(-c4noc(C5CC5)n4)cc23)c1 [Example 57]	1.55	–
COc1ccc(-c2nccc3[nH]c(=O)c(-c4noc(C5CC5)n4)cc23)cc1 [Example 59]	1.98	–
C=C(C)c1nc(-c2cc3c(C4CC4)nccc3[nH]c2=O)no1 [Example 60]	2.01	–
C=Cc1nc(-c2cc3c(C4CC4)nccc3[nH]c2=O)no1 [Example 61]	1.04	–
CCc1nc(-c2cc3c(-c4ccccc4C)nccc3[nH]c2=O)no1 [Example 97]	4.64	–
CCc1nc(-c2cc3c(-c4ccccc4OC)nccc3[nH]c2=O)no1 [Example 98]	8.56	–
CCc1nc(-c2cc3c(-c4cccc(OC)c4)nccc3[nH]c2=O)no1 [Example 99]	1.67	–
CCc1nc(-c2cc3c(-c4ccc(Cl)s4)nccc3[nH]c2=O)no1 [Example 104]	5.18	–
CCCc1nc(-c2cc3c(-c4ccccc4F)nccc3[nH]c2=O)no1 [Example 108]	2.14	–
CCCc1nc(-c2cc3c(-c4ccco4)nccc3[nH]c2=O)no1 [Example 109]	1.75	–
CCCc1nc(-c2cc3c(-c4cccs4)nccc3[nH]c2=O)no1 [Example 110]	1.16	–
CCCc1nc(-c2cc3c(-c4ccsc4)nccc3[nH]c2=O)no1 [Example 111]	2.06	–
CC(C)c1nc(-c2cc3c(-c4ccccc4F)nccc3[nH]c2=O)no1 [Example 112]	2.68	–
CC(C)c1nc(-c2cc3c(-c4ccco4)nccc3[nH]c2=O)no1 [Example 113]	2.18	–
CC(C)c1nc(-c2cc3c(-c4cccs4)nccc3[nH]c2=O)no1 [Example 114]	1.08	–

Structure (SMILES)	IC50 (benzodiazepine receptor) [nM]	TBPS binding Variation Rate [1] [%]
CC(C)c1nc(-c2cc3c(-c4ccsc4)nccc3[nH]c2=O)no1 [Example 115]	1.52	–
O=c1[nH]c2ccnc(-c3ccccc3F)c2cc1-c1noc(C2CC2)n1 [Example 116]	1.17	–
O=c1[nH]c2ccnc(-c3ccccc3Cl)c2cc1-c1noc(C2CC2)n1 [Example 117]	1.41	–
Cc1ccccc1-c1nccc2[nH]c(=O)c(-c3noc(C4CC4)n3)cc12 [Example 118]	1.28	–
COc1ccccc1-c1nccc2[nH]c(=O)c(-c3noc(C4CC4)n3)cc12 [Example 119]	2.53	–
COc1cccc(-c2nccc3[nH]c(=O)c(-c4noc(C5CC5)n4)cc23)c1 [Example 120]	1.59	–
O=c1[nH]c2ccnc(-c3ccco3)c2cc1-c1noc(C2CC2)n1 [Example 121]	0.78	–
O=c1[nH]c2ccnc(-c3cccs3)c2cc1-c1noc(C2CC2)n1 [Example 122]	0.87	–
CCCCc1nccc2[nH]c(=O)c(-c3nc(CC)no3)cc12 [Example 195]	4.01	–
CCc1noc(-c2cc3c(C4CCCCC4)nccc3[nH]c2=O)n1 [Example 197]	1.97	–
CCc1noc(-c2cc3c(-c4ccccc4F)nccc3[nH]c2=O)n1 [Example 199]	1.55	–
CCc1noc(-c2cc3c(-c4ccc(F)cc4)nccc3[nH]c2=O)n1 [Example 201]	1.84	–
CCc1noc(-c2cc3c(-c4ccc(Cl)cc4)nccc3[nH]c2=O)n1 [Example 204]	5.51	–
CCc1noc(-c2cc3c(-c4ccccc4C)nccc3[nH]c2=O)n1 [Example 205]	4.77	–
CCc1noc(-c2cc3c(-c4ccc(C)cc4)nccc3[nH]c2=O)n1 [Example 207]	3.42	–
CCc1noc(-c2cc3c(-c4ccccc4OC)nccc3[nH]c2=O)n1 [Example 208]	4.14	–
CCc1noc(-c2cc3c(-c4cccc(OC)c4)nccc3[nH]c2=O)n1 [Example 209]	1.28	–
CCCc1noc(-c2cc3c(C4CC4)nccc3[nH]c2=O)n1 [Example 215]	2.47	–
CCCc1noc(-c2cc3c(-c4ccccc4)nccc3[nH]c2=O)n1 [Example 216]	1.17	–
CCCc1noc(-c2cc3c(-c4ccccc4F)nccc3[nH]c2=O)n1 [Example 217]	1.34	–
CCCc1noc(-c2cc3c(-c4cccc(F)c4)nccc3[nH]c2=O)n1 [Example 218]	2.58	–

Structure (SMILES)	IC50 (benzodiazepine receptor) [nM]	TBPS binding Variation Rate [1] [%]
CCCc1noc(-c2cc3c(-c4ccc(F)cc4)nccc3[nH]c2=O)n1 [Example 219]	2.03	–
CCCc1noc(-c2cc3c(-c4cccs4)nccc3[nH]c2=O)n1 [Example 221]	0.72	–
CCCc1noc(-c2cc3c(-c4ccsc4)nccc3[nH]c2=O)n1 [Example 222]	1.49	–
CC(C)c1noc(-c2cc3c(-c4ccccc4)nccc3[nH]c2=O)n1 [Example 225]	2.12	–
CC(C)c1noc(-c2cc3c(-c4ccccc4F)nccc3[nH]c2=O)n1 [Example 226]	1.41	–
CC(C)c1noc(-c2cc3c(-c4cccc(F)c4)nccc3[nH]c2=O)n1 [Example 227]	1.46	–
CC(C)c1noc(-c2cc3c(-c4cccs4)nccc3[nH]c2=O)n1 [Example 230]	0.9	–
CC(C)c1noc(-c2cc3c(-c4ccsc4)nccc3[nH]c2=O)n1 [Example 231]	0.71	–
Cc1nccc2[nH]c(=O)c(-c3nc(C4CC4)no3)cc12 [Example 232]	6.48	–
O=c1[nH]c2ccnc(C3CC3)c2cc1-c1nc(C2CC2)no1 [Example 234]	0.84	–
O=c1[nH]c2ccnc(-c3ccccc3)c2cc1-c1nc(C2CC2)no1 [Example 235]	0.91	–
O=c1[nH]c2ccnc(-c3ccccc3F)c2cc1-c1nc(C2CC2)no1 [Example 236]	1.61	–
O=c1[nH]c2ccnc(-c3cccc(F)c3)c2cc1-c1nc(C2CC2)no1 [Example 237]	1.86	–
O=c1[nH]c2ccnc(-c3ccc(F)cc3)c2cc1-c1nc(C2CC2)no1 [Example 238]	1.38	–
Cc1ccccc1-c1nccc2[nH]c(=O)c(-c3nc(C4CC4)no3)cc12 [Example 242]	1.87	–
Cc1cccc(-c2nccc3[nH]c(=O)c(-c4nc(C5CC5)no4)cc23)c1 [Example 243]	1.81	–
O=c1[nH]c2ccnc(-c3cccs3)c2cc1-c1nc(C2CC2)no1 [Example 246]	1.46	–
CCc1nnc(-c2cc3c(-c4ccccc4)nccc3[nH]c2=O)o1 [Example 311]	1.91	–
